Target: T1, integrin αvβ3 (Mus musculus, UniProt O54890+P43406)
T1 construct: from tissue; host or cells: aorta (atherosclerotic plaque and normal regions) of living ApoE-/- and wild-type C57BL/6J mice
T1 sequence (P43406 31-1044): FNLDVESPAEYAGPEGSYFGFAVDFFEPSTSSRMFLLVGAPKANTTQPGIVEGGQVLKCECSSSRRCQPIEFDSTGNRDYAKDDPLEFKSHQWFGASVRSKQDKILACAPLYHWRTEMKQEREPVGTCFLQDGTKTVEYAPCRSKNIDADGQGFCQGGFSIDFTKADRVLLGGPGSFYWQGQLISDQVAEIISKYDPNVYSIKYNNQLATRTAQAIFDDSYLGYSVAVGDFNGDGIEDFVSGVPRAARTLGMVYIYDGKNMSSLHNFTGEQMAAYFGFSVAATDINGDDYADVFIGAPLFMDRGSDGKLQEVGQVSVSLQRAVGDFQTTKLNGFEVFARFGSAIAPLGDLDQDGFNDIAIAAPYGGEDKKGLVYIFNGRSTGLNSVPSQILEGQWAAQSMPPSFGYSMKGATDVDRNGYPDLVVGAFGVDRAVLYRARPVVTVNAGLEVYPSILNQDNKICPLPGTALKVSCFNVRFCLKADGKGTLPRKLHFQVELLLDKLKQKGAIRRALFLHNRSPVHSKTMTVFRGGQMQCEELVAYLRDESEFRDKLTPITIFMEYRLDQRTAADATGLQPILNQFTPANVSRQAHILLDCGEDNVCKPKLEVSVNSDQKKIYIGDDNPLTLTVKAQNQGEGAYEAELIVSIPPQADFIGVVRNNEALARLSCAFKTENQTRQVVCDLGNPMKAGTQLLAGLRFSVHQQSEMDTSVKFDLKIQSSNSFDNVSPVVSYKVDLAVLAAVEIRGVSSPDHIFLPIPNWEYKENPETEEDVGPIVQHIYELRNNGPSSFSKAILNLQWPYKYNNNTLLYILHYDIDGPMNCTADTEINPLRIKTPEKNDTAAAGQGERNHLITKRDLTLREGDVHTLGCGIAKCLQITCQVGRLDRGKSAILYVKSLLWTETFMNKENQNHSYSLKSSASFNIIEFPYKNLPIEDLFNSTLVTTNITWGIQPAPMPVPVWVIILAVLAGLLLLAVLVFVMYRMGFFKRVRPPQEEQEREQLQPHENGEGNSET
T1 sequence (O54890 26-787): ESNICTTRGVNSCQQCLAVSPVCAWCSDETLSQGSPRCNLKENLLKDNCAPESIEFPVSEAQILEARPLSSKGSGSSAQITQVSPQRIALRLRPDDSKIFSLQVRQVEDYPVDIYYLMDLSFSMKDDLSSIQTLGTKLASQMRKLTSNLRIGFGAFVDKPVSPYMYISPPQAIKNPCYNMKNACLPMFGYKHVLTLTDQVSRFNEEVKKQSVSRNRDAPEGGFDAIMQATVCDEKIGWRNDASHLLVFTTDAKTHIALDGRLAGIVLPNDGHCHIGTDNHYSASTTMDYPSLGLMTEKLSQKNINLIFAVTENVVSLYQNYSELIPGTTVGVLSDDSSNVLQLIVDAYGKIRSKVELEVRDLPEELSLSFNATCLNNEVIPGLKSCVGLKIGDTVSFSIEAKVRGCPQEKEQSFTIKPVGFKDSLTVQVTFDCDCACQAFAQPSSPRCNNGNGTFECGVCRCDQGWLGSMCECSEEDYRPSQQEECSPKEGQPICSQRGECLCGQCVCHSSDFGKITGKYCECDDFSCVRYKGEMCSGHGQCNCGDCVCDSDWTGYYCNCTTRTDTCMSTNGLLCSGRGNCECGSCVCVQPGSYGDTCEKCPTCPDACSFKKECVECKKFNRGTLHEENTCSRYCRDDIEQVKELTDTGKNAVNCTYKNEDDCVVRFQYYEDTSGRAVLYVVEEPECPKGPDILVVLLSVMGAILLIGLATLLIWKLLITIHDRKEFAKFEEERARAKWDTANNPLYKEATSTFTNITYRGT
Assay: In vivo SPECT/CT imaging and ROI quantification of radiotracer uptake in aorta of atherosclerotic (ApoE-/-, high-cholesterol diet) and wild-type mice
Conditions: 30 min post-injection, RGD and RAD tracers in the same mouse on consecutive days
Procedure: All animal experiments were carried out in accordance with the approved guidelines by the Seoul National University Bundang Hospital Animal Care and Use Committee. Apolipoprotein E knock out mice (male, n = 10) and C57BL/6J mice (male, n = 3) were purchased from the Jackson Laboratory (Bar Harbor, Maine, USA) at 8–10 weeks of age. The ApoE-/- mice were maintained on a high-cholesterol diet (0.2% total cholesterol, Harlan Laboratories, Indianapolis, IN, USA) for 40 weeks. At the time of imaging experiment, the mice had substantial atherosclerotic lesion growth resembling vulnerable plaques in humans. Wild-type mice with the C57BL/6J genetic background had been maintained on a regular diet and were used for the disease controls.
We anesthetized mice with 2% isoflurane gas anesthesia. […] The analysis software HiSPECT (Version 1.0, Bioscan Inc., Poway, CA, USA) and InVivoScope (Version 1.43, Bioscan Inc., Poway, CA, USA) were used for image reconstruction and quantification, respectively. […] Manually drawn two-dimensional regions of interest (ROIs) or three-dimensional volumes of interest (VOIs) were used to determine the accumulated radioactivity in units of %ID/g (with decay corrected to the time of injection) using 37–55.5 MBq radioactivity of ^99mTc as the reference source.

[O]=[99Tc](=[O])(=[O])[O-] [^99mTc-pertechnetate]
SPECT uptake in aortic arch region containing atherosclerotic plaques (in words): no specific accumulation

— paper PMC4485237, “SPECT/CT Imaging of High-Risk Atherosclerotic Plaques using Integrin-Binding RGD Dimer Peptides” (Scientific Reports, 2015)
